In patent US20120101032A1, “NOVEL MACROCYCLIC INHIBITORS OF HEPATITIS C VIRUS REPLICATION” (priority 2010, published 2012):

Key:
hepatitis C replicon = hepatitis C replicon EC50 assay; assay type: cell-based; conditions: Hepatitis C virus; hepatitis C replicon; read-out: EC50
Source text: NS3-NS4 inhibition activity can be determined using known assay methods.

NS3/NS4 complexes = NS3/NS4 complexes (Hepatitis C virus genotype 1a, UniProt P27958); assay: biochemical; conditions: NS3-NS4 activity; 23° C., pH 7.5, 25 μM NS4A peptide; read-out: IC50
NS3/NS4 complexes, sequence (P27958 1027-1657, one chain of several): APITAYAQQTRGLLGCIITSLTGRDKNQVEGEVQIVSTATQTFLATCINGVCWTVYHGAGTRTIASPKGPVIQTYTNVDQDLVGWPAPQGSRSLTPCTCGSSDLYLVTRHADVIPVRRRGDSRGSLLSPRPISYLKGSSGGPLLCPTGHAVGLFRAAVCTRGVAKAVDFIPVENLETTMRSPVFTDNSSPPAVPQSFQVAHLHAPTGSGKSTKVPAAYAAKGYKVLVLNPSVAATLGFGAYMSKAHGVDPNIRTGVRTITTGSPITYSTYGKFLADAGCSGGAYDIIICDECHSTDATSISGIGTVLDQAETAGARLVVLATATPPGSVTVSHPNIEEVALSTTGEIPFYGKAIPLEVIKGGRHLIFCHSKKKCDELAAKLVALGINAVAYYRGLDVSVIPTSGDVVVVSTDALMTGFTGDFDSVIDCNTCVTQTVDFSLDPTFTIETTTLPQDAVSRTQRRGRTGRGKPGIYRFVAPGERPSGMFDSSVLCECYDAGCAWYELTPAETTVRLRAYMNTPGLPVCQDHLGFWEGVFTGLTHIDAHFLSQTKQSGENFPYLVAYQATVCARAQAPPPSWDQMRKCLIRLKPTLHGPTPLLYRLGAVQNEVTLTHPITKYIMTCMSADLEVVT
Source text: NS3-NS4 inhibition activity can be determined using known assay methods. For example, NS3/NS4 complexes may be formed and inhibitory concentrations of test compounds determined as described in U.S. Patent Application Publication Number 2007/0054842 paragraph numbers 1497-1509, which is incorporated herein by reference in its entirety. Similarly, hepatitis C replicon EC50 may be determined using known assay methods such as described in U.S. Patent Application Publication Number 2007/0054842 paragraph numbers 1510-1515, which is incorporated herein by reference in its entirety. Assays may be conducted at ambient temperature (23° C.) in assay buffer containing 50 mM Tris-HCl, pH 7.5, 15% glycerol, 0.6 mM Lauryldimethylamine Oxide (LDAO), 25 μM NS4A peptide, and 10 mM Dithiothreitol (DTT).

SMILES | EC50 (hepatitis C replicon) | IC50 (NS3/NS4 complexes)
CC(C)n1c(O[C@@H]2C[C@H]3C(=O)N[C@]4(C(=O)NS(=O)(=O)C5(C)CC5)C[C@H]4/C=C\CCCCC[C@H](NC(=O)OC(C)(C)C)C(=O)N3C2)nc2c(-c3nc(-c4cccc(Cl)c4)cs3)cccc21 [Compound 101] | 0.01 to 0.1 µM | < 0.01 µM
COc1ccccc1-c1csc(-c2cccc3c2nc(O[C@@H]2C[C@H]4C(=O)N[C@]5(C(=O)NS(=O)(=O)C6(C)CC6)C[C@H]5/C=C\CCCCC[C@H](NC(=O)OC(C)(C)C)C(=O)N4C2)n3C(C)C)n1 [Compound 102] | < 0.01 µM | < 0.01 µM
COc1cccc(-c2csc(-c3cccc4c3nc(O[C@@H]3C[C@H]5C(=O)N[C@]6(C(=O)NS(=O)(=O)C7(C)CC7)C[C@H]6/C=C\CCCCC[C@H](NC(=O)OC(C)(C)C)C(=O)N5C3)n4C(C)C)n2)c1 [Compound 103] | < 0.01 µM | < 0.01 µM
CC(C)n1c(O[C@@H]2C[C@H]3C(=O)N[C@]4(C(=O)NS(=O)(=O)C5(C)CC5)C[C@H]4/C=C\CCCCC[C@H](NC(=O)OC(C)(C)C)C(=O)N3C2)nc2c(-c3nc(-c4cccc(F)c4)cs3)cccc21 [Compound 104] | 0.01 to 0.1 µM | < 0.01 µM
CC(C)n1c(O[C@@H]2C[C@H]3C(=O)N[C@]4(C(=O)NS(=O)(=O)C5(C)CC5)C[C@H]4/C=C\CCCCC[C@H](NC(=O)OC(C)(C)C)C(=O)N3C2)nc2c(-c3nc(-c4ccc(Br)cc4)cs3)cccc21 [Compound 106] | > 0.1 µM | < 0.01 µM
CC(C)n1c(O[C@@H]2C[C@H]3C(=O)N[C@]4(C(=O)NS(=O)(=O)C5(C)CC5)C[C@H]4/C=C\CCCCC[C@H](NC(=O)OC(C)(C)C)C(=O)N3C2)nc2c(-c3nc(-c4ccc(Cl)c(Cl)c4)cs3)cccc21 [Compound 107] | 0.01 to 0.1 µM | < 0.01 µM
CC(C)n1c(O[C@@H]2C[C@H]3C(=O)N[C@]4(C(=O)NS(=O)(=O)C5(C)CC5)C[C@H]4/C=C\CCCCC[C@H](NC(=O)OC(C)(C)C)C(=O)N3C2)nc2c(-c3nc(-c4ccc(F)c(F)c4)cs3)cccc21 [Compound 108] | < 0.01 µM | < 0.01 µM
CC(C)n1c(O[C@@H]2C[C@H]3C(=O)N[C@]4(C(=O)NS(=O)(=O)C5(C)CC5)C[C@H]4/C=C\CCCCC[C@H](NC(=O)OC(C)(C)C)C(=O)N3C2)nc2c(-c3nc(-c4ccc(F)c(C(F)(F)F)c4)cs3)cccc21 [Compound 109] | 0.01 to 0.1 µM | < 0.01 µM
CC(C)n1c(O[C@@H]2C[C@H]3C(=O)N[C@]4(C(=O)NS(=O)(=O)C5(C)CC5)C[C@H]4/C=C\CCCCC[C@H](NC(=O)OC(C)(C)C)C(=O)N3C2)nc2c(-c3nc(-c4ccc(OC(F)(F)F)cc4)cs3)cccc21 [Compound 110] | > 0.1 µM | < 0.01 µM
CC(C)n1c(O[C@@H]2C[C@H]3C(=O)N[C@]4(C(=O)NS(=O)(=O)C5(C)CC5)C[C@H]4/C=C\CCCCC[C@H](NC(=O)OC(C)(C)C)C(=O)N3C2)nc2c(-c3nc(-c4ccc(F)cc4F)cs3)cccc21 [Compound 111] | 0.01 to 0.1 µM | < 0.01 µM
CC(C)n1c(O[C@@H]2C[C@H]3C(=O)N[C@]4(C(=O)NS(=O)(=O)C5(C)CC5)C[C@H]4/C=C\CCCCC[C@H](NC(=O)OC(C)(C)C)C(=O)N3C2)nc2c(-c3nc(-c4ccc5c(c4)OCCO5)cs3)cccc21 [Compound 112] | < 0.01 µM | < 0.01 µM
CC(C)n1c(O[C@@H]2C[C@H]3C(=O)N[C@]4(C(=O)NS(=O)(=O)C5(C)CC5)C[C@H]4/C=C\CCCCC[C@H](NC(=O)OC(C)(C)C)C(=O)N3C2)nc2c(-c3nc(-c4ccc(C(C)(C)C)cc4)cs3)cccc21 [Compound 113] | 0.01 to 0.1 µM | < 0.01 µM
Cc1ccccc1Cc1csc(-c2cccc3c2nc(O[C@@H]2C[C@H]4C(=O)N[C@]5(C(=O)NS(=O)(=O)C6(C)CC6)C[C@H]5/C=C\CCCCC[C@H](NC(=O)OC(C)(C)C)C(=O)N4C2)n3C(C)C)n1 [Compound 114] | < 0.01 µM | < 0.01 µM
COc1ccccc1Cc1csc(-c2cccc3c2nc(O[C@@H]2C[C@H]4C(=O)N[C@]5(C(=O)NS(=O)(=O)C6(C)CC6)C[C@H]5/C=C\CCCCC[C@H](NC(=O)OC(C)(C)C)C(=O)N4C2)n3C(C)C)n1 [Compound 115] | < 0.01 µM | < 0.01 µM
CC(C)c1ccc(Cc2csc(-c3cccc4c3nc(O[C@@H]3C[C@H]5C(=O)N[C@]6(C(=O)NS(=O)(=O)C7(C)CC7)C[C@H]6/C=C\CCCCC[C@H](NC(=O)OC(C)(C)C)C(=O)N5C3)n4C(C)C)n2)cc1 [Compound 116] | 0.01 to 0.1 µM | < 0.01 µM
CC(C)n1c(O[C@@H]2C[C@H]3C(=O)N[C@]4(C(=O)NS(=O)(=O)C5(C)CC5)C[C@H]4/C=C\CCCCC[C@H](NC(=O)OC(C)(C)C)C(=O)N3C2)nc2c(-c3nc(Cc4cccc(Br)c4)cs3)cccc21 [Compound 117] | 0.01 to 0.1 µM | < 0.01 µM
CC(C)n1c(O[C@@H]2C[C@H]3C(=O)N[C@]4(C(=O)NS(=O)(=O)C5(C)CC5)C[C@H]4/C=C\CCCCC[C@H](NC(=O)OC(C)(C)C)C(=O)N3C2)nc2c(-c3nc(Cc4ccc(-c5ccccc5)cc4)cs3)cccc21 [Compound 118] | < 0.01 µM | < 0.01 µM
CC(C)n1c(O[C@@H]2C[C@H]3C(=O)N[C@]4(C(=O)NS(=O)(=O)C5(C)CC5)C[C@H]4/C=C\CCCCC[C@H](NC(=O)OC(C)(C)C)C(=O)N3C2)nc2c(-c3nc(Cc4cccc(C(F)(F)F)c4)cs3)cccc21 [Compound 119] | 0.01 to 0.1 µM | < 0.01 µM
CC(C)n1c(O[C@@H]2C[C@H]3C(=O)N[C@]4(C(=O)NS(=O)(=O)C5(C)CC5)C[C@H]4/C=C\CCCCC[C@H](NC(=O)OC(C)(C)C)C(=O)N3C2)nc2c(-c3nc(Cc4cccc(OC(F)(F)F)c4)cs3)cccc21 [Compound 120] | 0.01 to 0.1 µM | < 0.01 µM
CC(C)n1c(O[C@@H]2C[C@H]3C(=O)N[C@]4(C(=O)NS(=O)(=O)C5(C)CC5)C[C@H]4/C=C\CCCCC[C@H](NC(=O)OC(C)(C)C)C(=O)N3C2)nc2c(-c3nc(Cc4ccc(OC(F)(F)F)cc4)cs3)cccc21 [Compound 121] | 0.01 to 0.1 µM | < 0.01 µM
CC(C)n1c(O[C@@H]2C[C@H]3C(=O)N[C@]4(C(=O)NS(=O)(=O)C5(C)CC5)C[C@H]4/C=C\CCCCC[C@H](NC(=O)OC(C)(C)C)C(=O)N3C2)nc2c(-c3nc(Cc4ccc(Cl)cc4)cs3)cccc21 [Compound 122] | > 0.1 µM | < 0.01 µM
COc1cccc(Cc2csc(-c3cccc4c3nc(O[C@@H]3C[C@H]5C(=O)N[C@]6(C(=O)NS(=O)(=O)C7(C)CC7)C[C@H]6/C=C\CCCCC[C@H](NC(=O)OC(C)(C)C)C(=O)N5C3)n4C(C)C)n2)c1 [Compound 123] | < 0.01 µM | < 0.01 µM
COc1ccc(Cc2csc(-c3cccc4c3nc(O[C@@H]3C[C@H]5C(=O)N[C@]6(C(=O)NS(=O)(=O)C7(C)CC7)C[C@H]6/C=C\CCCCC[C@H](NC(=O)OC(C)(C)C)C(=O)N5C3)n4C(C)C)n2)cc1 [Compound 124] | < 0.01 µM | < 0.01 µM
CC(C)n1c(O[C@@H]2C[C@H]3C(=O)N[C@]4(C(=O)NS(=O)(=O)C5(C)CC5)C[C@H]4/C=C\CCCCC[C@H](NC(=O)OC(C)(C)C)C(=O)N3C2)nc2c(-c3csc(N4CCCC4)n3)cccc21 [Compound 125] | < 0.01 µM | < 0.01 µM
CC(C)n1c(O[C@@H]2C[C@H]3C(=O)N[C@]4(C(=O)NS(=O)(=O)C5(C)CC5)C[C@H]4/C=C\CCCCC[C@H](NC(=O)OC(C)(C)C)C(=O)N3C2)nc2c(-c3cnccn3)cccc21 [Compound 126] | < 0.01 µM | < 0.01 µM
CC(C)n1c(O[C@@H]2C[C@H]3C(=O)N[C@]4(C(=O)NS(=O)(=O)C5(C)CC5)C[C@H]4/C=C\CCCCC[C@H](NC(=O)OC(C)(C)C)C(=O)N3C2)nc2c(-c3csc(N4CCN(C)CC4)n3)cccc21 [Compound 127] | < 0.01 µM | < 0.01 µM
CC(C)n1c(O[C@@H]2C[C@H]3C(=O)N[C@]4(C(=O)NS(=O)(=O)C5(C)CC5)C[C@H]4/C=C\CCCCC[C@H](NC(=O)OC(C)(C)C)C(=O)N3C2)nc2c(-c3cncc(N4CCCC4)n3)cccc21 [Compound 128] | < 0.01 µM | < 0.01 µM
CC(C)n1c(O[C@@H]2C[C@H]3C(=O)N[C@]4(C(=O)NS(=O)(=O)C5(C)CC5)C[C@H]4/C=C\CCCCC[C@H](NC(=O)OC(C)(C)C)C(=O)N3C2)nc2c(-c3cscn3)cccc21 [Compound 129] | < 0.01 µM | < 0.01 µM
CC(C)n1c(O[C@@H]2C[C@H]3C(=O)N[C@]4(C(=O)NS(=O)(=O)N(C)C)C[C@H]4/C=C\CCCCC[C@H](NC(=O)OC(C)(C)C)C(=O)N3C2)nc2c(-c3nc(-c4cccc(Cl)c4)cs3)cccc21 [Compound 130] | 0.01 to 0.1 µM | < 0.01 µM
COc1ccccc1-c1csc(-c2cccc3c2nc(O[C@@H]2C[C@H]4C(=O)N[C@]5(C(=O)NS(=O)(=O)N(C)C)C[C@H]5/C=C\CCCCC[C@H](NC(=O)OC(C)(C)C)C(=O)N4C2)n3C(C)C)n1 [Compound 131] | 0.01 to 0.1 µM | < 0.01 µM
